Results as given in US11845938B2, “Aptamer compositions and the use thereof” (City of Hope, priority 2016, dated 2023).
“Also recorded” adds a separate entry of the source.

B1: P1: RNA aptamer SEQ ID NO: 1, mHSP70 binding aptamer internalizing upon binding mHSP70 at the cell surface (nucleic acid)
chain: GGGAGACAAGAAUAAACGCUCAAUGCGCUGAAUGCCCAGCCGUGAAAGCGUCGAUUUCCAUCCUUCGACAGGAGGCUCACAACAGGC
modifications: listed as RNA, chemistry not fully specified

What was measured:
[1] = bypassing dCK deficiency, reference [5]; cited from earlier work
[2] = tested on: Huh7, HepG2, MCF7 and PC3 cells; experiment: Live-cell confocal imaging, aptamer internalization in non pancreatic lines; assay type: cell-based; conditions: 200 nM Cy3-labeled aptamer
Method: (§1) FIGS. 4A-4C. Binding affinity and cell internalization of truncated P19 (tP19). (FIG. 4A) The dissociation constant (KD) was measured by flow cytometry using increasing concentrations of Cy3-labeled aptamers (from 15.6 to 500 nM). Mean fluorescence intensity (MFI) was measured and calculated using a one-site binding model for non-linear regression. […] (FIG. 4B) The pancreatic cell lines PANC-1 and AsPC-1 were treated with 200 nM of the Cy3-labeled tP19 aptamer and analyzed by confocal microscopy. […] (FIG. 4C) Non pancreatic lines including Huh7, HepG2, MCF7 and PC3 cells were also treated with 200 nM of Cy3-labeled tP19 and P1 aptamers. […] Dye Hoechst 33342. Scale bar: 10 μm.
(§2) For the aptamer internalization studies, 1×10^5 cells were seeded in 35 mm glass-bottom dishes (MatTek, Ashland, Mass., USA) and grown in medium for 24 hrs. The RNAs were labeled with Cy3 using the Cy3 Silencer siRNA labeling kit (Ambion, Tex., USA.). Cy3-labeled RNAs were added to the cells at 200 nM or 500 nM and incubated for 2 hour. The images were taken using a Zeiss LSM 510 Meta Inverted 2 photon confocal microscope system using a C-Apo 40x/1.2NA water immersion objective.

PANC-1 cells [3] = experiment: Flow cytometry-based binding assay, apparent dissociation constant (KD) of Cy3-labeled aptamers; conditions: flow cytometry MFI, one-site binding model, read-out: binding affinity (dissociation constant, KD)
Method: FIGS. 1A-1D. ApDCs of gemcitabine and 5-FU. (FIG. 1A) Chemical structure of gemcitabine and 5-FU prodrug (5F-dUTP). (FIG. 1B) The sequence of P19 incorporated with dFdCMP (dFdCTP) (SEQ ID NO: 18) and 5FdUMP (5FdUTP) (SEQ ID NO: 19) into P19, instead of 2′F-CTP and 2′F-UTP. (FIG. 1C) Intrinsic incorporation of active metabolites of gemcitabine (dFdCMP) and 5FdUMP in P19. M: Marker. 1:P19, 2: P19-dFdCMP, 3:P19-5FdUMP. (FIG. 1D) The dissociation constant (KD) was measured by flow cytometry using increasing concentrations of Cy3-labeled aptamers (from 15.6 to 1000 nM). Mean fluorescence intensity (MFI) was measured and calculated using a one-site binding model for non-linear regression.
FIGS. 4A-4C. […] Mean fluorescence intensity (MFI) was measured and calculated using a one-site binding model for non-linear regression. […] (FIG. 4B) The pancreatic cell lines PANC-1 and AsPC-1 were treated with 200 nM of the Cy3-labeled tP19 aptamer and analyzed by confocal microscopy. […]
Aptamer binding and uptake was also assessed by flow cytometry. […] Cells were washed with binding buffer and immediately analyzed by Fortessa flow cytometry (BD). […] The data were analyzed with FlowJo software.
To determine the apparent dissociation constant (KD) of aptamers to PANC-1 cells, the mean fluorescence intensity (MFI) was calculated for each concentration and for the unselected library controls. […]

PANC-1 cells [4] = experiment: Live-cell confocal imaging, aptamer internalization; assay type: cell-based; conditions: Cy3-labeled RNAs at 200 nM, 2 hour, confocal microscopy
Method: FIGS. 2A-2D. Cell proliferation assay of dFdC-P19-ApDC and 5FdU-P19-ApDC. (FIGS. 2A-2B) The pancreatic cell lines PANC-1 were treated with 200 nM of the Cy3-labeled dFdCMP-P19-ApDC (FIG. 2A) or 5FdUMP-P19-ApDC (FIG. 2B) and analyzed by confocal microscopy. […] Dyes: Cy3 labeled RNAs, Hoechst 33342. Scale bar: […]. (FIG. 2C) After treatment dFdCMP-P19-ApDC or 5FdUMP-P19-ApDC in PANC-1 cells for 72 hrs, cell viability was measured by MTT assay. One-way ANOVA test: ****≤0.0001, ***≤0.001. (FIG. 2D) After treatment dFdCMP-P19-ApDC or 5FdUMP-P19-ApDC in chemo-resistance AsPC-1 cells for 72 hrs, cell viability was measured by MTT assay. One-way ANOVA test: ****≤0.0001, ***≤0.001
as §1
FIGS. 5A-5D. […]

AsPC-1 cells = experiment: as above; assay type: cell-based; conditions: 200 nM Cy3-labeled aptamer, confocal microscopy
Method: as §1, §2

Row | Molecule | effectiveness relative to dFdC [1] | internalization (Cy3 signal) in non-pancreatic cancer cell lines [2] | Kd (PANC-1 cells [3]) | internalization into PANC-1 cells (PANC-1 cells [4]) | internalization into AsPC-1 cells (AsPC-1 cells)
1 | gemcitabine monophosphate [dFdCMP] | 4 fold | – | – | – | –
2 | tP19: truncated form of aptamer P19, SEQ ID NO: 3, 28 bps in length, mHSP70 binding aptamer (CUCAAUGGCGAAUGCCCGCCUAAUAGGG; listed as RNA, chemistry not fully specified) | – | No Cy3 signal was observed; also recorded: not in non-pancreatic cancer cell lines | 8.57 nM | internalized into PANC-1 and AsPC-1 cells | internalized into PANC-1 and AsPC-1 cells
3 | B1 | – | No Cy3 signal was observed | – | – | –
